Data published in US11530237B2, “Compositions and methods for treating CNS disorders” (Sage Therapeutics, Inc., priority 2014, dated 2022).

Assays:
[1] = molecular target: [35S]-TBPS binding, rat brain cortical membranes; test: Steroid inhibition of TBPS binding ([35S]-TBPS radioligand displacement); conditions: 3 nM [35S]-TBPS, 5 μM GABA
Procedure: TBPS binding assays using rat brain cortical membranes in the presence of 5 μM GABA has been described (Gee et al, J. Pharmacol. Exp. Then 1987, 241, 346-353; Hawkinson et al, Mol. Pharmacol. 1994, 46, 977-985; Lewin, A. H et al., Mol. Pharmacol. 1989, 35, 189-194).
Briefly, cortices are rapidly removed following decapitation of carbon dioxide-anesthetized Sprague-Dawley rats (200-250 g). The cortices are homogenized in 10 volumes of […] using a glass/teflon homogenizer and centrifuged at 1500×g for 10 min at 4° C. The resultant supernatants are centrifuged at 10,000×g for 20 min at 4° C. to obtain the P2 pellets. The P2 pellets are resuspended in 200 mM NaCl/50 mM Na—K phosphate pH 7.4 buffer and centrifuged at 10,000×g for 10 min at 4° C. This washing procedure is repeated twice and the pellets are resuspended in 10 volumes of buffer. Aliquots (100 μL) of the membrane suspensions are incubated with 3 nM [^35S]-TBPS and 5 μL aliquots of test drug dissolved in dimethyl sulfoxide (DMSO) (final 0.5%) in the presence of 5 μM GABA. The incubation is brought to a final volume of 1.0 mL with buffer. […] Following a 90 min incubation at room temp, the assays are terminated by filtration through glass fiber filters (Schleicher and Schuell No. 32) using a cell harvester (Braudel) and rinsed three times with ice-cold buffer. Filter bound radioactivity is measured by liquid scintillation spectrometry. Non-linear curve fitting of the overall data for each drug averaged for each concentration is done using Prism (GraphPad).
Various compounds are or can be screened to determine their potential as modulators of [^35S]-TBPS binding in vitro. These assays are or can be performed in accordance with the above discussed procedures.

[2] = molecular target: α1β2γ2 GABAA receptors (Homo sapiens (Human), UniProt P14867+P47870); test: Patch clamp electrophysiology (QPatch) of recombinant α1β2γ2 GABAA receptors in LTK cells; type: cell-based; conditions: 10 μM test article, GABA EC20 = 2 μM; for Emax at 10 µM: read-out: GABA (α1β2γ2) Qpatch in Ltk, % efficacy at 10 μM
Procedure: (§1) Cellular electrophysiology is used to measure the pharmacological properties of our GABAA receptor modulators in heterologous cell systems. Each compound is tested for its ability to affect GABA mediated currents at a suhmaximal agonist dose (GABA EC20=2 μM). LTK cells are stably transfected with the α1β2γ2 subunits of the GABA receptor and CHO cells are transiently transfected with the α4β3δ subunits via the Lipofecatamine method. Cells were passaged at a confluence of about 50-80% and then seeded onto 35 mm sterile culture dishes containing 2 ml culture complete medium without antibiotics or antimycotics. Confluent clusters of cells are electrically coupled (Pritchett et al., Science, 1988, 242, 1306-1308). Because responses in distant cells are not adequately voltage clamped and because of uncertainties about the extent of coupling (Verdoom et al., Neuron 1990, 4, 919-928), cells were cultivated at a density that enables the recording of single cells (without visible connections to other cells).
(§2) Whole cell currents were measured with HEKA EPC-10 amplifiers using PatchMaster software or by using the high throughput QPatch platform (Sophion). Bath solution for all experiments contained (in mM): NaCl 137 mM, KCl 4 mM, CaCl2 1.8 mM, MgCl2 1 mM, HEPES 10 mM, D-Glucose 10 mM, pH (NaOH) 7.4. In some cases 0.005% cremophor was also added. Intracellular (pipette) solution contained: KCl 130 mM, MgCl2 1 mM, Mg-ATP 5 mM, HEPES 10 mM, EGTA 5 mM, pH 7.2. During experiments, cells and solutions were maintained at room temperature (19° C.-30° C.). For manual patch clamp recordings, cell culture dishes were placed on the dish holder of the microscope and continuously perfused (1 ml/min) with bath solution. After formation of a Gigaohm seal between the patch electrodes and the cell (-ipette resistance range: 2.5 MΩ-6.0 MΩ; seal resistance range:>1 GΩ) the cell membrane across the pipette tip was ruptured to assure electrical access to the cell interior (whole-cell patch-configuration). For experiments using the QPatch system, cells were transferred as suspension to the QPatch system in the bath solution and automated whole cell recordings were performed.
(§3) Cells were voltage clamped at a holding potential of −80 mV. For the analysis of test articles, GABA receptors were stimulated by 2 μM GABA after sequential pre-incubation of increasing concentrations of the test article. Pre-incubation duration was 30 s and the duration of the GABA stimulus was 2s. Test articles were dissolved in DMSO to form stock solutions (10 mM). Test articles were diluted to 0.01, 0.1, 1, and 10 μM in bath solution. All concentrations of test articles were tested on each cell. The relative percentage potentiation was defined as the peak amplitude in response to GABA EC20 in the presence of the test article divided by the peak amplitude in response to GABA EC20 alone, multiplied by 100. For Table 2. GABAA receptors α1β2γ2 and α4β3δ% efficacy: “A” 10-100, “B”>100-500, “C”>500; D indicates the data is not available or has not been determined.

[3] = molecular target: α4β3δ GABAA receptors (Homo sapiens (Human), UniProt P28472+P48169); test: Patch clamp electrophysiology (manual patch) of recombinant α4β3δ GABAA receptors in CHO cells; type: cell-based; conditions: 10 μM test article, GABA EC20 = 2 μM, read-out: GABA (α4β3δ) Manual patch in CHO, % efficacy at 10 μM
Procedure: as §1, §2, §3

Compound C[C@@]1(O)CC[C@@]2(C)[C@@H](CC[C@@H]3[C@@H]2CC[C@]2(C)[C@@H](C(=O)Cn4cc(N)cn4)CC[C@@H]32)C1 [Compound 152, 2-(4-amino-1H-pyrazol-1-yl)-1-((3R,5S,8R,9S,10S,13S,14S,17S)-3-hydroxy-3,10,13-trimethylhexadecahydro-1H-cyclopenta[a]phenanthren-17-yl)ethanone] has an IC50 [1] of 0.1 to 0.5 µM and an Emax at 10 µM [2] of 100 to 500%.

In the case of C[C@@]1(O)CC[C@@]2(C)[C@@H](CC[C@@H]3[C@@H]2CC[C@]2(C)[C@@H](C(=O)Cn4cnc(C#N)c4)CC[C@@H]32)C1 [Compound 138], the IC50 [1] is reported as 0.1 to 0.5 µM and the “GABA (α1β2γ2) Qpatch in Ltk, % efficacy at 10 μM” value [2] is reported as “C (>500)”.

C[C@@]1(O)CC[C@@]2(C)[C@H](CC[C@@H]3[C@@H]2CC[C@]2(C)[C@@H](C(=O)Cn4cc(C(F)(F)F)cn4)CC[C@@H]32)C1 [Compound 134] was tested, and the Emax at 10 µM [2] was over 500% and the Emax at 10 µM [3] was over 500%.

C[C@@]1(O)CC[C@@]2(C)[C@@H](CC[C@@H]3[C@@H]2CC[C@]2(C)[C@@H](C(=O)Cn4ccc(C#N)n4)CC[C@@H]32)C1 [Compound 121] was tested, and the Emax at 10 µM [2] was over 500% and the Emax at 10 µM [3] was over 500%.

For C[C@@]1(O)CC[C@@]2(C)[C@@H](CC[C@@H]3[C@@H]2CC[C@]2(C)[C@@H](C(=O)Cn4nnc5ccc(Cl)c(F)c54)CC[C@@H]32)C1 [Compound 113], the IC50 [1] was 0.01 to 0.05 µM and the “GABA (α1β2γ2) Qpatch in Ltk, % efficacy at 10 μM” value [2] was “B (>100-500)”.

Compound CC(=O)Nc1cnn(CC(=O)[C@H]2CC[C@H]3[C@@H]4CC[C@H]5C[C@](C)(O)CC[C@]5(C)[C@H]4CC[C@]23C)c1 [Compound 153, N-(1-(2-((3R,5S,8R,9S,10S,13S,14S,17S)-3-hydroxy-3,10,13-trimethylhexadecahydro-1H-cyclopenta[a]phenanthren-17-yl)-2-oxoethyl)-1H-pyrazol-4-yl)acetamide] has an IC50 [1] of 0.1 to 0.5 µM and an Emax at 10 µM [2] of 100 to 500%.

Compound C[C@@]1(O)CC[C@@]2(C)[C@@H](CC[C@@H]3[C@@H]2CC[C@]2(C)[C@@H](C(=O)Cn4nc5cc(F)cc(F)c5n4)CC[C@@H]32)C1 [Compound 234] has an Emax at 10 µM [3] of 100 to 500%.

CO[C@H]1C[C@@]2(C)[C@@H](CC[C@@H]3[C@@H]2CC[C@]2(C)[C@@H](C(=O)Cn4nccn4)CC[C@@H]32)C[C@@H]1O [Compound 2] gave an Emax at 10 µM [2] of 100 to 500% and an Emax at 10 µM [3] of 100 to 500%.

With COC[C@@]1(O)CC[C@@]2(C)[C@@H](CC[C@@H]3[C@@H]2CC[C@]2(C)[C@@H](C(=O)Cn4cc(C#N)cn4)CC[C@@H]32)C1 [Compound 142] the Emax at 10 µM [2] was over 500% and the Emax at 10 µM [3] was over 500%.

For C[C@@]1(O)CC[C@@]2(C)[C@@H](CC[C@@H]3[C@@H]2CC[C@]2(C)[C@@H](C(=O)Cn4nc5ccc(F)c(F)c5n4)CC[C@@H]32)C1 [Compound 108, 2-(4,5-difluoro-2H-benzo[d][1,2,3]triazol-2-yl)-1-((3R,5S,8R,9S,10S,13S,14S,17S)-3-hydroxy-3,10,13-trimethylhexadecahydro-1H-cyclopenta[a]phenanthren-17-yl)ethanone], the IC50 [1] was 0.01 to 0.05 µM and the Emax at 10 µM [2] was 100 to 500%.

C[C@@]1(O)CC[C@@]2(C)[C@@H](CC[C@@H]3[C@@H]2CC[C@]2(C)[C@@H](C(=O)Cn4ncnn4)CC[C@@H]32)C1 [Compound 118] gave an Emax at 10 µM [2] of 100 to 500% and an Emax at 10 µM [3] of over 500%.

For CC(C)(C(=O)[C@H]1CC[C@H]2[C@@H]3CC[C@H]4C[C@](C)(O)CC[C@]4(C)[C@H]3CC[C@]12C)n1nnc2ccccc21 [Compound 102, 2-(1H-benzo[d][1,2,3]triazol-1-yl)-1-((3R,5S,8R,9S,10S,13S,14S,17S)-3-hydroxy-3,10,13-trimethylhexadecahydro-1H-cyclopenta[a]phenanthren-17-yl)-2-methylpropan-1-one], the IC50 [1] was over 0.5 µM.

In the case of C[C@H](C(=O)[C@H]1CC[C@H]2[C@@H]3CC[C@H]4C[C@](C)(O)CC[C@]4(C)[C@H]3CC[C@]12C)n1nc2ccccc2n1 [Compound 98, (R)-2-(2H-benzo[d][1,2,3]triazol-2-yl)-1-((3R,5S,8R,9S,10S,13S,14S,17S)-3-hydroxy-3,10,13-trimethylhexadecahydro-1H-cyclopenta[a]phenanthren-17-yl)propan-1-one], the IC50 [1] is reported as 0.05 to 0.1 µM.

Compound C[C@H](C(=O)[C@H]1CC[C@H]2[C@@H]3CC[C@@H]4C[C@](C)(O)CC[C@]4(C)[C@H]3CC[C@]12C)n1nc2ccccc2n1 [Compound 60, (R)-2-(2H-benzo[d][1,2,3]triazol-2-yl)-1-((3R,5R,8R,9S,10S,13S,14S,17S)-3-hydroxy-3,10,13-trimethylhexadecahydro-1H-cyclopenta[a]phenanthren-17-yl)propan-1-one] has an IC50 [1] of 0.01 to 0.05 µM.

C[C@H](C(=O)[C@H]1CC[C@H]2[C@@H]3CC[C@H]4C[C@](C)(O)CC[C@]4(C)[C@H]3CC[C@]12C)n1cc(C#N)cn1 [Compound 80, 1-((R)-1-((3R,5S,8R,9S,10S,13S,14S,17S)-3-hydroxy-3,10,13-trimethylhexadecahydro-1H-cyclopenta[a]phenanthren-17-yl)-1-oxopropan-2-yl)-1H-pyrazole-4-carbonitrile] was tested, and the IC50 [1] was 0.1 to 0.5 µM.

C[C@@]1(O)CC[C@@]2(C)[C@@H](CC[C@@H]3[C@@H]2CC[C@]2(C)[C@@H](C(=O)Cn4nc5ccc(F)cc5n4)CC[C@@H]32)C1 [Compound 246] gave an IC50 [1] of under 0.01 µM.

Compound CC(C(=O)[C@H]1CC[C@H]2[C@@H]3CC[C@@H]4C[C@](C)(O)CC[C@]4(C)[C@H]3CC[C@]12C)n1nc2ccccc2n1 (stereo in doubt) [Compound 61, (S)-2-(2H-benzo[d][1,2,3]triazol-2-yl)-1-((3R,5R,8R,9S,10S,13S,14S,17S)-3-hydroxy-3,10,13-trimethylhexadecahydro-1H-cyclopenta[a]phenanthren-17-yl)propan-1-one] has an IC50 [1] of 0.1 to 0.5 µM.

C[C@@H](C(=O)[C@H]1CC[C@H]2[C@@H]3CC[C@@H]4C[C@](C)(O)CC[C@]4(C)[C@H]3CC[C@]12C)n1ccnn1 [Compound 59, (S)-1-((3R,5R,8R,9S,10S,13S,14S,17S)-3-hydroxy-3,10,13-trimethylhexadecahydro-1H-cyclopenta[a]phenanthren-17-yl)-2-(1H-1,2,3-triazol-1-yl)propan-1-one] was tested, and the IC50 [1] was 0.1 to 0.5 µM.

Compound C[C@H](C(=O)[C@H]1CC[C@H]2[C@@H]3CC[C@H]4C[C@](C)(O)CC[C@]4(C)[C@H]3CC[C@]12C)n1ccnn1 [Compound 92, (R)-1-((3R,5S,8R,9S,10S,13S,14S,17S)-3-hydroxy-3,10,13-trimethylhexadecahydro-1H-cyclopenta[a]phenanthren-17-yl)-2-(1H-1,2,3-triazol-1-yl)propan-1-one] has an IC50 [1] of over 0.5 µM.
